The source of these data is US20250066335A1, “POLYSUBSTITUTED 4-HYDROXYPYRIDINE AND 4-HYDROXYQUINOLINE DERIVATIVES AS GPR84 ANTAGONISTS” (UNIVERSITY OF COPENHAGEN, priority 2021, published 2025).

The structures appear in SMILES notation.

In this experiment the target is T1, GPR84 (Homo sapiens, UniProt Q9NQS5).
T1 construct: expressed in transfected cells; host or cells: HTLA cells (HEK293 line stably expressing a tTA-dependent luciferase reporter and a β-arrestin2-TEV fusion gene), transiently transfected with PEI
T1 sequence (Q9NQS5 whole entry, the tested form may be a part): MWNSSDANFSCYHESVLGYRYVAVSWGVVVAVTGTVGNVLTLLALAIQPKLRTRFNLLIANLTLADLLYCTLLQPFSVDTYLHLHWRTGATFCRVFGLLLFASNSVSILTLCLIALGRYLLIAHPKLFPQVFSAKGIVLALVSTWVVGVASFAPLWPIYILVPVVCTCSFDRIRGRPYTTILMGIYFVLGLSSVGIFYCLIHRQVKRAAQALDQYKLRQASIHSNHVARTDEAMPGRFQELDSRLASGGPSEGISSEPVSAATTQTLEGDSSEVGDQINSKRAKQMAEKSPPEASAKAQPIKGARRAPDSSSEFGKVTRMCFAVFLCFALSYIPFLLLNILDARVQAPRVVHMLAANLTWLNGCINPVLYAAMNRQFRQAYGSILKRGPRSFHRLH
The experiment can be described thus: PRESTO-Tango β-arrestin2 recruitment assay, GPR84 antagonistic activity. The settings on record: antagonist activity in the Presto-TANGO assay; inhibition of the response from the agonist ZQ-16 (100 nM); HTLA cells. The format is cell-based. The procedure: PRESTO-Tango β-arrestin recruitment assay (W.K. Kroeze et al., 2015). HTLA cells (a HEK293 cell line stably expressing a tTA-dependent luciferase reporter and a β-arrestin2-TEV fusion gene) were maintained in Dulbecco's Modified Eagle's Medium (DMEM) supplemented with 10% Fetal Bovine Serum (dFBS), 100 U/mL penicillin and 100 μg/mL streptomycin, 2 μg/mL puromycin and 100 μg/mL hygromycin B in a humidified atmosphere at 37° C. in 5% CO2. For transfection, cells were plated at 9×10^6 to 10×10^6 cells per 15-cm cell-culture dish (day 1). The following day (day 2), cells were transfected by adding 5 μg DNA and 15 μg polyethylenimine (PEI) diluted in 1 mL Opti-MEM (Reduced Serum Medium supplied by ThermoFisher). On day 3, transfected cells were transferred at 25000 cells per well in 40 μl of medium into poly-l-lysine-coated and rinsed 384-well white, clear-bottomed cell-culture plates (Greiner Bio-One). On day 4, dilutions of the ligands to be tested were prepared in 1% dFBS DMEM and 10 μL were added to each well. On day 5, 20 μl per well of Bright-Glo solution (Promega) diluted 10-fold in assay buffer (Hanks' Balanced Salt Solution [HBSS], 20 mM HEPES, 1 mM CaCl2, 1 mM MgCl2, pH adjusted to 7.4 by 5 M NaOH) was added to each well. After incubation for 20 min at room temperature, luminescence was counted in an Enspire luminescence counter at 384 nm. Results in the form of relative luminescence units (RLU) were exported into Excel spreadsheets, and GraphPad Prism was used for analysis of data. To measure constitutive activity, no ligand was added on day 4.
The GPR84 antagonistic activity of the compounds was determined using the PRESTO-Tango β-arrestin2 recruitment assay (Assay I, see assays above), from which the concentration of each compound required for 50% inhibition (IC50) of the response from the agonist ZQ-16 (100 nM) was determined. The antagonistic activity for each compound is given in Table 1 as the pIC50, which is the negative log of the IC50 value when converted to molar.
(Recruitment of arrestin is a read-out of receptor activation apart from second messengers.)

In general, IC50 refers to the concentration needed to halve the response being measured. For `CCCc1ccc(CCc2nc(OCC3CCCCO3)cc(O)c2Br)cc1` (stereo not shown) [Example 1, 3-bromo-2-(4-propylphenethyl)-6-((tetrahydro-2H-pyran-2-yl)methoxy)pyridin-4-ol], the IC50 was 3.02 nM. This lies in the single-digit nanomolar range. `CCCc1ccc(CCc2nc(OCC3CCCCO3)cc(O)c2C)cc1` (stereo not shown) [Example 2, 3-Methyl-2-(4-propylphenethyl)-6-((tetrahydro-2H-pyran-2-yl)methoxy)pyridin-4-ol] showed an IC50 of 1.32 nM. This IC50 lies about 2.3-fold lower than the previous one.

Turning to `CCCc1ccc(CCc2nc(OCC3CCCCO3)cc(O)c2-c2ccccc2)cc1` (stereo not shown) [Example 3, 3-Phenyl-2-(4-propylphenethyl)-6-((tetrahydro-2H-pyran-2-yl)methoxy)pyridin-4-ol], the IC50 was 85.1 nM. For the molecule `CCOc1ccc(CCc2nc(OCC3CCCCO3)cc(O)c2C#N)cc1` (stereo not shown) [Example 4, 2-(4-Ethoxyphenethyl)-4-hydroxy-6-((tetrahydro-2H-pyran-2-yl)methoxy)nicotinonitrile], the IC50 is 145 nM. `CCOc1ccc(-c2ccc3c(O)cc(OCC4CCCCO4)nc3c2)cc1` (stereo not shown) [Example 5, 7-(4-Ethoxyphenyl)-2-((tetrahydro-2H-pyran-2-yl)methoxy)quinolin-4-ol] had an IC50 of 724 nM. Next, `CCCc1ccc(CCc2nc(OCC3CCCCO3)cc(O)c2CC)cc1` (stereo not shown) [Example 6, 3-Ethyl-2-(4-propylphenethyl)-6-((tetrahydro-2H-pyran-2-yl)methoxy)pyridin-4-ol]: 2.14 nM.

With `CCCc1ccc(CCc2nc(OCC3CCCCO3)cc(O)c2CCC)cc1` (stereo not shown) [Example 7, 3-Propyl-2-(4-propylphenethyl)-6-((tetrahydro-2H-pyran-2-yl)methoxy)pyridin-4-ol], the IC50 is 6.61 nM.

As to `CCCc1ccc(CCc2nc(OCC3CCCCO3)cc(O)c2C(C)C)cc1` (stereo not shown) [Example 8, 3-Isopropyl-2-(4-propylphenethyl)-6-((tetrahydro-2H-pyran-2-yl)methoxy)pyridin-4-ol], the IC50 was 81.3 nM. This IC50 lies about 12-fold higher than the previous one. In the case of `CCCc1ccc(CCc2nc(OCC3CCCCO3)cc(O)c2-c2ccccc2C)cc1` (stereo not shown) [Example 9, 2-(4-Propylphenethyl)-6-((tetrahydro-2H-pyran-2-yl)methoxy)-3-(o-tolyl)pyridin-4-ol], the IC50 was 389 nM. Molecule `CCCc1ccc(CCc2nc(OCC3CCCCO3)cc(O)c2-c2ccc(C)cc2)cc1` (stereo not shown) [Example 10, 2-(4-Propylphenethyl)-6-((tetrahydro-2H-pyran-2-yl)methoxy)-3-(p-tolyl)pyridin-4-ol] showed an IC50 of 66.1 nM. On to `CCCc1ccc(CCc2nc(OCC3CCCCO3)cc(O)c2CCc2ccccc2)cc1` (stereo not shown) [Example 11, 3-Phenethyl-2-(4-propylphenethyl)-6-((tetrahydro-2H-pyran-2-yl)methoxy)pyridin-4-ol], for which the IC50 was 178 nM. Against the preceding molecule, the IC50 is about 2.7-fold higher. The figure for `CCCc1ccc(CCc2nc(OCC3CCCCO3)cc(O)c2/C=C/C(=O)OCC)cc1` (stereo not shown) [Example 12, Ethyl (E)-3-(4-hydroxy-2-(4-propylphenethyl)-6-((tetrahydro-2H-pyran-2-yl)methoxy)pyridin-3-yl)acrylate] is 21.9 nM.

In turn, `CCCc1ccc(CCc2nc(OCC3CCCCO3)cc(O)c2CCC(=O)OCC)cc1` (stereo not shown) [Example 13, Ethyl 3-(4-hydroxy-2-(4-propylphenethyl)-6-((tetrahydro-2H-pyran-2-yl)methoxy)pyridin-3-yl)propanoate] showed an IC50 of 13.2 nM. The molecule `CCCc1ccc(CCc2nc(OCC3CCCCO3)cc(O)c2CCC(=O)O)cc1` (stereo not shown) [Example 14, Sodium 3-(4-hydroxy-2-(4-propylphenethyl)-6-((tetrahydro-2H-pyran-2-yl)methoxy)pyridin-3-yl)propanoate] had an IC50 of 1.12 nM. The figure for `CCCc1ccc(CCc2nc(OCC3CCCCO3)cc(O)c2CCCO)cc1` (stereo not shown) [Example 15, 3-(3-Hydroxypropyl)-2-(4-propylphenethyl)-6-((tetrahydro-2H-pyran-2-yl)methoxy)pyridin-4-ol] is 1.7 nM; for `CCCc1ccc(CCc2nc(OCC3CCCCO3)cc(O)c2-c2ccc(CC)cc2)cc1` (stereo not shown) [Example 16, 3-(4-Ethylphenyl)-2-(4-propylphenethyl)-6-((tetrahydro-2H-pyran-2-yl)methoxy)pyridin-4-ol] it is 70.8 nM.
